Assays:
[1] = system: Pseudomonas aeruginosa UI-18: Wild-type (PA-7); experiment: MIC determination (CLSI), strain PA-7; assay type: cell-based; conditions: strain PA-7, unit assumed
Summary of the method: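 Strain tested was P. aeruginosa UI-18, a wild-type isolate labelled PA-7. Minimum inhibitory concentrations followed CLSI dilution methodology for aerobically growing bacteria (M7-A7, M100-S18).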

[2] = system: Escherichia coli EC-1: VOGEL, mouse virulent; experiment: MIC determination (CLSI), strain EC-1; assay type: cell-based; conditions: strain EC-1, unit assumed
Summary of the method: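 The mouse-virulent VOGEL isolate of E. coli, EC-1, served as test organism. Minimum inhibitory concentration was measured by CLSI dilution methodology (M7-A7; M100-S18 standards).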

[3] = generated in the same manner as in Table 4

SMILES | PA-7 (MIC) [1] [µg/mL] | EC-1 (MIC) [2] [µg/mL] | PA-7 (MIC) [1, 3] [µg/mL] | EC-1 (MIC) [2, 3] [µg/mL]
Cc1c(-c2ccc(C#N)cc2)ccn(CC[C@](C)(C(=O)NO)S(C)(=O)=O)c1=O [Example 398, (2R)-4-[4-(4-cyanophenyl)-3-methyl-2-oxopyridin-1(2H)-yl]-N-hydroxy-2-methyl-2-(methylsulfonyl)butanamide] | 2 | 4 | – | –
C[C@@](CCn1ccc(-c2ccc(-c3cnsc3)cc2)cc1=O)(C(=O)NO)S(C)(=O)=O [Example 380, (2R)-N-hydroxy-4-[4-(4-isothiazol-4-ylphenyl)-2-oxopyridin-1(2H)-yl]-2-methyl-2-(methylsulfonyl)butanamide] | 1 | 0.5 | – | –
CC(CCn1ccc(-c2cccc(O)c2F)cc1=O)(C(=O)NO)S(C)(=O)=O (stereo not drawn) [Example 96] | – | – | > 64 | 64
C[C@@](CCn1ccc(-c2cccc(OC(F)F)c2)cc1=O)(C(=O)NO)S(C)(=O)=O [Example 480] | 4 | 8 | – | –
Cc1nnc(C)n1-c1ccc(-c2ccn(CC[C@](C)(C(=O)NO)S(C)(=O)=O)c(=O)c2)cc1 [Example 382, (2R)-4-{4-[4-(3,5-dimethyl-4H-1,2,4-triazol-4-yl)phenyl]-2-oxopyridin-1(2H)-yl}-N-hydroxy-2-methyl-2-(methylsulfonyl)butanamide] | > 64 | > 64 | – | –
CC(CCn1ccc(-c2cnc3ccccc3c2)cc1=O)(C(=O)NO)S(C)(=O)=O (stereo not drawn) [Example 125, N-hydroxy-2-methyl-2-(methylsulfonyl)-4-(2-oxo-4-quinolin-3-ylpyridin-1(2H)-yl)butanamide] | – | – | 32 | 16
Cc1ccc2ccc(-c3ccn(CCC(C)(C(=O)NO)S(C)(=O)=O)c(=O)c3)cc2n1 (stereo not drawn) [Example 305, N-hydroxy-2-methyl-4-[4-(2-methylquinolin-7-yl)-2-oxopyridin-1(2H)-yl]-2-(methylsulfonyl)butanamide] | > 64 | 16 | – | –
CC(CCn1ccc(-c2cccc(N)c2)cc1=O)(C(=O)NO)S(C)(=O)=O (stereo not drawn) [Example 110, 4-[4-(3-aminophenyl)-2-oxopyridin-1(2H)-yl]-N-hydroxy-2-methyl-2-(methylsulfonyl)butanamide] | – | – | 64 | > 64
C[C@@](CCn1ccc(-c2ccc(OC(F)F)cc2)cc1=O)(C(=O)NO)S(C)(=O)=O [Example 338, (2R)-4-{4-[4-(difluoromethoxy)phenyl]-2-oxopyridin-1(2H)-yl}-N-hydroxy-2-methyl-2-(methylsulfonyl)butanamide] | 0.5 | 0.5 | – | –
CC(CCn1ccc(-c2cc(F)ccc2F)cc1=O)(C(=O)NO)S(C)(=O)=O (stereo not drawn) [Example 196, 4-[4-(2,5-difluorophenyl)-2-oxopyridin-1(2H)-yl]-N-hydroxy-2-methyl-2-(methylsulfonyl)butanamide] | 4 | 8 | – | –
CC(CCn1ccc(-c2cccc(CO)c2)cc1=O)(C(=O)NO)S(C)(=O)=O (stereo not drawn) [Example 144, N-hydroxy-4-{4-[3-(hydroxymethyl)phenyl]-2-oxopyridin-1(2H)-yl}-2-methyl-2-(methylsulfonyl)butanamide] | – | – | > 64 | > 64
CC(CCn1ccc(-c2ccc(C(F)(F)CO)cc2)cc1=O)(C(=O)NO)S(C)(=O)=O (stereo not drawn) [Example 69, 4-{4-[4-(1,1-difluoro-2-hydroxyethyl)phenyl]-2-oxopyridin-1(2H)-yl}-N-hydroxy-2-methyl-2-(methylsulfonyl)butanamide] | – | – | 16 | 4
C[C@@](CCn1ccc(-c2ccc3[nH]c(=O)ccc3c2)cc1=O)(C(=O)NO)S(C)(=O)=O [Example 327, (2R)-N-hydroxy-2-methyl-2-(methylsulfonyl)-4-[2-oxo-4-(2-oxo-1,2-dihydroquinolin-6-yl)pyridin-1(2H)-yl]butanamide] | > 64 | 4 | – | –
CC(CCn1ccc(-c2ccc(Br)cc2F)cc1=O)(C(=O)NO)S(C)(=O)=O (stereo not drawn) [Example 283, 4-[4-(4-bromo-2-fluorophenyl)-2-oxopyridin-1(2H)-yl]-N-hydroxy-2-methyl-2-(methylsulfonyl)butanamide] | 1 | 0.25 | – | –
COc1cc(-c2ccn(CCC(C)(C(=O)NO)S(C)(=O)=O)c(=O)c2)ccc1OCCCO (stereo not drawn) [Example 249, N-hydroxy-4-{4-[4-(3-hydroxypropoxy)-3-methoxyphenyl]-2-oxopyridin-1(2H)-yl}-2-methyl-2-(methylsulfonyl)butanamide] | 64 | > 64 | – | –
Cc1c(Cl)cccc1-c1ccn(CCC(C)(C(=O)NO)S(C)(=O)=O)c(=O)c1 (stereo not drawn) [Example 266, 4-[4-(3-chloro-2-methylphenyl)-2-oxopyridin-1(2H)-yl]-N-hydroxy-2-methyl-2-(methylsulfonyl)butanamide] | 4 | 4 | – | –
C[C@@](CCn1ccc(-c2ccc(-c3cncnc3)cc2)cc1=O)(C(=O)NO)S(C)(=O)=O [Example 423] | 4 | 1 | – | –

SMILES | PA-7 (MIC) [1] [µg/mL] | EC-1 (MIC) [2] [µg/mL] | PA-7 (MIC) [1, 3] [µg/mL] | EC-1 (MIC) [2, 3] [µg/mL]
CC(CCn1ccc(-c2cc3ccncc3cc2F)cc1=O)(C(=O)NO)S(C)(=O)=O (stereo not drawn) [Example 306, 4-[4-(7-fluoroisoquinolin-6-yl)-2-oxopyridin-1(2H)-yl]-N-hydroxy-2-methyl-2-(methylsulfonyl)butanamide] | 4 | 8 | – | –
Cc1ccc(-c2ccn(CCC(C)(C(=O)NO)S(C)(=O)=O)c(=O)c2)cc1 (stereo not drawn) [Example 190, N-hydroxy-2-methyl-4-[4-(4-methylphenyl)-2-oxopyridin-1(2H)-yl]-2-(methylsulfonyl)butanamide] | 1 | 1 | – | –
CC(CCn1ccc(-c2cnn(Cc3ccccc3)c2)cc1=O)(C(=O)NO)S(C)(=O)=O (stereo not drawn) [Example 165, 4-[4-(1-benzyl-1H-pyrazol-4-yl)-2-oxopyridin-1(2H)-yl]-N-hydroxy-2-methyl-2-(methylsulfonyl)butanamide] | – | – | > 64 | > 64
CC(C)NC(=O)c1ccc(-c2ccn(CCC(C)(C(=O)NO)S(C)(=O)=O)c(=O)c2)cc1 (stereo not drawn) [Example 146, 4-{1-[4-(hydroxyamino)-3-methyl-3-(methylsulfonyl)-4-oxobutyl]-2-oxo-1,2-dihydropyridin-4-yl}-N-isopropylbenzamide] | – | – | > 64 | > 64
CCOc1ccc(-c2ccn(CC[C@](C)(C(=O)NO)S(C)(=O)=O)c(=O)c2)cc1C#N [Example 479] | 16 | 64 | – | –
C[C@@](CCn1ccc(-c2ccc(CCCO)c(F)c2)cc1=O)(C(=O)NO)S(C)(=O)=O [Example 344, (2R)-4-{4-[3-fluoro-4-(3-hydroxypropyl)phenyl]-2-oxopyridin-1(2H)-yl}-N-hydroxy-2-methyl-2-(methylsulfonyl)butanamide] | 2 | 4 | – | –
CC1(O)CCC(Oc2ccc(-c3ccn(CC[C@](C)(C(=O)NO)S(C)(=O)=O)c(=O)c3)cc2F)CC1 (stereo partly drawn) [Example 349, (2R)-4-[4-{3-fluoro-4-[(4-hydroxy-4-methylcyclohexyl)oxy]phenyl}-2-oxopyridin-1(2H)-yl]-N-hydroxy-2-methyl-2-(methylsulfonyl)butanamide] | 4 | 0.5 | – | –
CC(CCn1ccc(-c2ccc(OCCCN3CCNC(=O)C3)cc2)cc1=O)(C(=O)NO)S(C)(=O)=O (stereo not drawn) [Example 86, N-hydroxy-2-methyl-2-(methylsulfonyl)-4-[2-oxo-4-{4-[3-(3-oxopiperazin-1-yl)propoxy]phenyl}pyridin-1(2H)-yl]butanamide] | – | – | 32 | 16
C[C@@](CCn1ccc(-c2ccc(OC[C@H]3CC[C@@H](O)CC3)c(F)c2)cc1=O)(C(=O)NO)S(C)(=O)=O [Example 348, (2R)-4-[4-{3-fluoro-4-[(cis-4-hydroxycyclohexyl)methoxy]phenyl}-2-oxopyridin-1(2H)-yl]-N-hydroxy-2-methyl-2-(methylsulfonyl)butanamide] | 1 | 0.25 | – | –
CC(CCn1ccc(-c2ccc(OCCCN3CCC(O)CC3)cc2)cc1=O)(C(=O)NO)S(C)(=O)=O (stereo not drawn) [Example 83, N-hydroxy-4-[4-{4-[3-(4-hydroxypiperidin-1-yl)propoxy]phenyl}-2-oxopyridin-1(2H)-yl]-2-methyl-2-(methylsulfonyl)butanamide] | – | – | 16 | 32
CC(CCn1ccc(-c2cccc(F)c2)cc1=O)(C(=O)NO)S(C)(=O)=O (stereo not drawn) [Example 187, 4-[4-(3-fluorophenyl)-2-oxopyridin-1(2H)-yl]-N-hydroxy-2-methyl-2-(methylsulfonyl)butanamide] | 2 | 8 | – | –
COc1ccc(-c2ccn(CCC(C)(C(=O)NO)S(C)(=O)=O)c(=O)c2)cc1OC (stereo not drawn) [Example 138, 4-[4-(3,4-dimethoxyphenyl)-2-oxopyridin-1(2H)-yl]-N-hydroxy-2-methyl-2-(methylsulfonyl)butanamide] | – | – | 64 | 64
COc1ccnc2ccc(-c3ccn(CC[C@](C)(C(=O)NO)S(C)(=O)=O)c(=O)c3)cc12 [Example 482] | > 64 | > 64 | – | –
CC(CCn1ccc(-c2ccc3ccc(O)cc3c2)cc1=O)(C(=O)NO)S(C)(=O)=O (stereo not drawn) [Example 299, N-hydroxy-4-[4-(7-hydroxy-2-naphthyl)-2-oxopyridin-1(2H)-yl]-2-methyl-2-(methylsulfonyl)butanamide] | 4 | 1 | – | –
COCCc1cccc(-c2ccn(CC[C@](C)(C(=O)NO)S(C)(=O)=O)c(=O)c2)c1 [Example 470] | 32 | 16 | – | –
CN(C)S(=O)(=O)c1cccc(-c2ccn(CCC(C)(C(=O)NO)S(C)(=O)=O)c(=O)c2)c1 (stereo not drawn) [Example 148, 4-[4-{3-[(dimethylamino)sulfonyl]phenyl}-2-oxopyridin-1(2H)-yl]-N-hydroxy-2-methyl-2-(methylsulfonyl)butanamide] | – | – | > 64 | 64
